What was measured:
[1] = molecular target: human c-MER catalytic domain (Homo sapiens (Human), UniProt Q12866); assay: LanthaScreen TR-FRET kinase assay, c-MER; details: read-out: Mer TK inhibition (IC50); Biochemical IC50, TR-FRET, 10 uM ATP
[2] = system: CD8-MerTK in Ba/F3-CDM cells; assay: In cell MER kinase assay, Ba/F3-CDM cell proliferation without IL-3 (Celltiter-Glo); type: cell-based, murine; details: 48 hours compound treatment, read-out: Cell growth inhibition (GI50)
Procedure, shortened: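 Ba/F3 cells, IL-3-dependent, transfected with CD8-MerTK and grown without IL-3 in DMEM/10% FBS. IL-3-supplemented Ba/F3 cells run in parallel as a cytotoxicity control.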

human c-MER catalytic domain, sequence (Q12866 587-858): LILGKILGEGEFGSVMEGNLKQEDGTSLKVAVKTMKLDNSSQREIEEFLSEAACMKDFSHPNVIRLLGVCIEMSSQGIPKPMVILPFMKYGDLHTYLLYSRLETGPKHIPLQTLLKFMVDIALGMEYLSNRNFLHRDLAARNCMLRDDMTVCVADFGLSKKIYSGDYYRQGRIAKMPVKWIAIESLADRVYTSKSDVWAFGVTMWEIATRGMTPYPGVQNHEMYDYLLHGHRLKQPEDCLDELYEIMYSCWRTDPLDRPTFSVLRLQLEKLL

## CN1CCN(Cc2ccc(-c3ccc(CO[C@H]4CNC[C@@H]4NC(=O)c4cc(-c5cnn(C)c5)cnc4N)cc3)cc2)CC1 [Example 434, 2-amino-5-(1-methyl-1H-pyrazol-4-yl)-N-((3S,4S)-4-((4′-((4-methylpiperazin-1-yl)methyl)-[1,1′-biphenyl]-4-yl)methoxy)pyrrolidin-3-yl)-nicotinamide]
[1]
  IC50: < 10 nM
[2]
  GI50: 500 to 1000 nM

## CN1CCN(Cc2ccc(-c3ccc(CO[C@H]4CN(C)C[C@@H]4NC(=O)c4cc(-c5cnn(C)c5)cnc4N)cc3)cc2)CC1 [Example 435, 2-amino-5-(1-methyl-1H-pyrazol-4-yl)-N-((3S,4S)-1-methyl-4-((4′-((4-methylpiperazin-1-yl)methyl)-[1,1′-biphenyl]-4-yl)methoxy)pyrrolidin-3-yl)-nicotinamide]
[1]
  IC50: < 10 nM
[2]
  GI50: 100 to 500 nM

## CN1CCN(Cc2ccc(-c3ccc(CO[C@H]4CNC[C@@H]4NC(=O)c4cc(-c5cnn(C)c5)cnc4N)cc3)cc2C(F)(F)F)CC1 [Example 436, 2-amino-5-(1-methyl-1H-pyrazol-4-yl)-N-((3S,4S)-4-((4′-((4-methylpiperazin-1-yl)methyl)-3′-(trifluoromethyl)-[1,1′-biphenyl]-4-yl)methoxy)-pyrrolidin-3-yl)nicotinamide]
[1]
  IC50: < 10 nM
[2]
  GI50: 500 to 1000 nM

## CN1CCN(Cc2ccc(-c3ccc(CO[C@H]4CN(C)C[C@@H]4NC(=O)c4cc(-c5cnn(C)c5)cnc4N)cc3)cc2C(F)(F)F)CC1 [Example 437, 2-amino-5-(1-methyl-1H-pyrazol-4-yl)-N-((3S,4S)-1-methyl-4-((4′-((4-methylpiperazin-1-yl)methyl)-3′-(trifluoromethyl)-[1,1′-biphenyl]-4-yl)-methoxy)pyrrolidin-3-yl)nicotinamide]
[1]
  IC50: < 10 nM
[2]
  GI50: < 100 nM

## CC(c1ccc(-c2ccc(CO[C@H]3CNC[C@@H]3NC(=O)c3cc(-c4cnn(C)c4)cnc3N)cc2)cc1)N1CCN(C)CC1 (stereo partly drawn) [Example 438, 2-amino-5-(1-methyl-1H-pyrazol-4-yl)-N-((3S,4S)-4-((4′-(1-(4-methylpiperazin-1-yl)ethyl)-[1,1′-biphenyl]-4-yl)methoxy)pyrrolidin-3-yl)-nicotinamide]
[1]
  IC50: < 10 nM
[2]
  GI50: 500 to 1000 nM

## CC(c1ccc(-c2ccc(CO[C@H]3CN(C)C[C@@H]3NC(=O)c3cc(-c4cnn(C)c4)cnc3N)cc2)cc1)N1CCN(C)CC1 (stereo partly drawn) [Example 439, 2-amino-5-(1-methyl-1H-pyrazol-4-yl)-N-((3S,4S)-1-methyl-4-((4′-(1-(4-methylpiperazin-1-yl)ethyl)-[1,1′-biphenyl]-4-yl)methoxy)pyrrolidin-3-yl)-nicotinamide]
[1]
  IC50: < 10 nM
[2]
  GI50: 100 to 500 nM

## Cn1cc(-c2cnc(N)c(C(=O)N[C@H]3CNC[C@@H]3OCc3ccc(-c4ccc(C(C)(C)N5CCN(CCO)CC5)cc4)cc3)c2)cn1 [Example 440, 2-amino-N-((3S,4S)-4-((4′-(2-(4-(2-hydroxyethyl)piperazin-1-yl)propan-2-yl)-[1,1′-biphenyl]-4-yl)methoxy)pyrrolidin-3-yl)-5-(1-methyl-1H-pyrazol-4-yl)nicotinamide]
[1]
  IC50: < 10 nM
[2]
  GI50: > 1000 nM

## CN1C[C@H](NC(=O)c2cc(-c3cnn(C)c3)cnc2N)[C@@H](OCc2ccc(-c3ccc(C(C)(C)N4CCN(CCO)CC4)cc3)cc2)C1 [Example 441]
[1]
  IC50: < 10 nM
[2]
  GI50: 100 to 500 nM

## CC(c1ccc(-c2ccc(CO[C@H]3CNC[C@@H]3NC(=O)c3cc(-c4cnn(C)c4)cnc3N)cc2)cc1)N1CCN(CCO)CC1 (stereo partly drawn) [Example 442, 2-amino-N-((3S,4S)-4-((4′-(1-(4-(2-hydroxyethyl)piperazin-1-yl)ethyl)-[1,1′-biphenyl]-4-yl)methoxy)pyrrolidin-3-yl)-5-(1-methyl-1H-pyrazol-4-yl)nicotinamide]
[1]
  IC50: < 10 nM
[2]
  GI50: > 1000 nM
